“And” between values parts separate entries of the source, which are not always exact repeats. Equal entries are not always repeated. “Also recorded” adds a separate entry of the source. Marks after values point to notes of the source that are not given here.
Tests used:
[1] = test system: HBMEC cells; assay: Blood-brain barrier transport study (Transwell, UHPLC-q-TOF-MS); format: in vitro ADME, human; details: for Permeability / transport to the lower compartment in HBMEC cells, over the incubation times tested: OP-1 extract 40 µg mL−1, 2-24 h, time not specified (overall or maximum); for Te% ± SEM HBMEC Cells 2 h: OP-1 extract 40 µg mL−1, 2 h; for Te% ± SEM HBMEC Cells 2 h / Te% ± SEM HBMEC Cells 4 h / Te% ± SEM HBMEC Cells 24 h: Te = CLower/CUpper × 100; for Te% ± SEM HBMEC Cells 4 h: OP-1 extract 40 µg mL−1, 4 h; for Te% ± SEM HBMEC Cells 24 h: OP-1 extract 40 µg mL−1, 24 h
Method: The HBMEC cell line was used as a simplified in vitro model of the BBB endothelium. For this, cells were seeded at a density of 1.6 × 10^5 cells/cm^2 into 12-well Transwell® plates (0.4 μm pore, Corning Costar Corp., Corning, NY, USA) coated with rat tail collagen-I (100 μg mL^−1). Medium was changed every second day until a monolayer was formed (10 days), and the transport studies were initiated.
Medium containing 0.4% ethanol was used as the control group, and the lower chamber was filled with 1.5 mL of medium. The cells were incubated under these conditions for 2, 4, and 24 h. After incubation time, cell culture medium from both the upper and lower compartments was collected, dried using a freeze dryer (Martin Christ, Osterode am Harz, Germany), and stored at −80 °C until the chemical characterization was performed to assess the transport efficiency of the bioactive compounds.
(§1) The transport efficiency of bioactive compounds across the cell layer (Te) was calculated using the Equation (1) proposed by Pogačnik et al. (2016):Te = CLower/CUpper × 100%(1)
(§2) This calculation was performed to understand whether the compound crosses the cell layer and how efficiently it is transported. Here, CLower represents the relative concentration (peak area) of the compound in the lower compartment, and CUpper represents the relative concentration (peak area) of the compound in the upper compartment.
(§3) Obtained samples from the transport assays performed in HBMEC and Caco-2 cells were extracted to recover and concentrate the bioactive compounds in the upper and lower compartments and to prevent possible interferences of the cell culture medium in the analyses. Briefly, dried samples were resuspended in 0.5 mL of H2O and mixed with vortex for 10 s. Then, 0.5 mL of AcOEt was added, mixed with vortex for 10 s, and centrifuged at 14,000 rpm for 5 min. After centrifugation, the supernatant (AcOEt) was carefully transferred to a 1.5 mL Eppendorf tube and dried in a SpeedVac (SPD1030, Thermo Fisher Scientific) device at 40 °C and 13 mbar pressure. Finally, the dried extracts were resuspended in 25 μL of pure ethanol for their subsequent analysis.
(§4) The analysis of the obtained samples from HBMEC cells, Caco-2 cells, and PAMPA-BBB experiments was carried out using the same conditions and instrumentation as in our previous study. Briefly, 10 μL of each sample was injected into an Agilent 1290 UHPLC system equipped with a DAD detector and coupled to an Agilent 6540 q-TOF/MS equipped with an orthogonal atmospheric pressure chemical ionization (APCI) source, all from Agilent Technologies (Santa Clara, CA, USA). Carotenoids were separated using a Thermo Fisher Scientific Accucore C30 column (2.6 μm, 4.6 × 50 mm), applying a flow rate of 0.8 mL min^−1 at 30 °C. Methanol/MTBE/water (90:7:3%) and methanol/MTBE (10:90%) were used as mobile phases, and the chromatographic gradient started with 0%B, changing it to 100%B within 12 min. This was kept constant for 1.5 min before returning to the initial conditions.
(§5) The results were processed using the Agilent Mass Hunter Qualitative software (version B.10.0). A peak intensity threshold of 5000 (nearly 4 times the noise signal) in the upper compartments was applied to obtain reliable and accurate results, and a relative quantification was performed. Peaks below this threshold value were excluded from the analysis.

[2] = test system: Caco-2 cells; assay: Intestinal transepithelial transport study (Transwell, UHPLC-q-TOF-MS); format: in vitro ADME, human; details: for Permeability / transport to the lower compartment in Caco-2 cells, over the incubation times tested: OP-1 extract 40 µg mL−1, 2-24 h, time not specified (overall or maximum); for Te% ± SEM Caco-2 Cells 2 h: OP-1 extract 40 µg mL−1, 2 h; for Te% ± SEM Caco-2 Cells 2 h / Te% ± SEM Caco-2 Cells 4 h / Te% ± SEM Caco-2 Cells 24 h: Te = CLower/CUpper × 100; for Te% ± SEM Caco-2 Cells 4 h: OP-1 extract 40 µg mL−1, 4 h; for Te% ± SEM Caco-2 Cells 24 h: OP-1 extract 40 µg mL−1, 24 h
Method: as §1, §2
Caco-2 cells were grown according to the protocol described by Rojo-Poveda et al. (2020) to evaluate the intestinal permeability. Briefly, Caco-2 cells were seeded into inserts (0.4 μm pore, Corning Costar Corp., Corning, NY, USA) in 12-well plates. Then, 0.5 mL of complete DMEM culture medium containing approximately 300,000 cells was applied to the apical surface (AP) of each insert, and 1.5 mL of the same culture medium was added to the basolateral side (BL). Cells were allowed to grow for 21 days to differentiate and form a monolayer, changing the culture medium every 2–3 days.
The Caco-2 transport studies were performed using the same procedures as for HBMEC experiments (described in Section 4.5.2 and Section 4.5.3), but using DMEM as cell culture medium and recording TEER measurements.
as §3, §4, §5

[3] = Neuroprotection against L-glutamate-induced toxicity in SH-SY5Y cells (MTT); details: human
Method: Then, the viability was determined by the MTT assay as below. At the end of the 24 h incubation period, the medium was removed, and 0.5 mg mL^−1 MTT solution was added to each well. The cells were incubated at 37 °C for 3 h. At the end of the incubation, MTT was carefully removed, and formazan crystals in the wells were dissolved by adding 100 µL of DMSO. The absorbance of the solution was measured by a plate reader at 570 nm wavelength. Cell viability was calculated by comparing the absorbance values of treated cells with the control group (ethanol-treated cells). […] All the experiments were performed in triplicate.
In the control group, DMEM/F12 cell medium supplemented with 1% FBS, 100 U mL^−1 penicillin, 100 μg mL^−1 streptomycin, 250 ng mL^−1 antimycotic, and 0.4% ethanol was used. […] Cell viability was assessed by MTT assay at the end of the experiments. All the experiments were repeated three times.

[4] = test system: differentiated SH-SY5Y cells; assay: Neuroprotection against H2O2-induced toxicity in SH-SY5Y cells (MTT); format: cell-based, human; details: H2O2 65 µM, 24 h
Method: All the experiments were performed in triplicate.
All the experiments were repeated three times.

| Compound | Permeability / transport to the lower compartment in HBMEC cells, over the incubation times tested [1] | Te% ± SEM HBMEC Cells 24 h [1] | Permeability / transport to the lower compartment in Caco-2 cells, over the incubation times tested [2] | further results |
| --- | --- | --- | --- | --- |
| CC1=C(C#C/C(C)=C/C=C/C(C)=C/C=C/C=C(C)/C=C/C=C(C)/C=C/C2=C(C)CCCC2(C)C)C(C)(C)C[C@H](O)C1 [Crocoxanthin] | ≈ 3% and 3% | 2.7 ± 0.6 ^a % | ≈ 12% and 12.1% | Te% ± SEM HBMEC Cells 2 h [1]: 3.4 ± 3.2 ^a %; Te% ± SEM HBMEC Cells 4 h [1]: 0.9 ± 0.3 ^b %; Te% ± SEM Caco-2 Cells 2 h [2]: 12.0 ± 9.5 ^a %; Te% ± SEM Caco-2 Cells 4 h [2]: 11.8 ± 5.6 ^a %; Te% ± SEM Caco-2 Cells 24 h [2]: 12.1 ± 1.5 ^a % |
| CC1=C(C#C/C(C)=C/C=C/C(C)=C/C=C/C=C(C)/C=C/C=C(C)/C=C/C2=C(C)C[C@@H](O)CC2(C)C)C(C)(C)C[C@H](O)C1 [Diatoxanthin] | 8.1% | 8.1 ± 3.4 ^a % | 4.4% | Te% ± SEM HBMEC Cells 4 h [1]: 1.1 ± 0.1 ^b %; Te% ± SEM HBMEC Cells 4 h ([1]; listed as diatoxanthin): 1.1%; Te% ± SEM HBMEC Cells 24 h ([1]; listed as diatoxanthin): 8.1%; Te% ± SEM Caco-2 Cells 2 h [2]: 1.4 ± 0.1 ^c %; Te% ± SEM Caco-2 Cells 2 h ([2]; listed as diatoxanthin): 1.4%; Te% ± SEM Caco-2 Cells 4 h [2]: 2.3 ± 0.3 ^b %; Te% ± SEM Caco-2 Cells 24 h [2]: 4.4 ± 0.9 ^a %; Te% ± SEM Caco-2 Cells 24 h ([2]; listed as diatoxanthin): 4.4% |
| C\C(C=C=C1C(C)(C)C[C@H](O)C[C@@]1(C)O)=C/C=C/C(C)=C/C=C/C=C(C)/C=C/C=C(\C)C(=O)C[C@@]12O[C@]1(C)C[C@@H](O)CC2(C)C [Fucoxanthinol] |  | 18.94% and 18.9 ± 2.3 ^a % |  | Te% ± SEM HBMEC Cells 2 h [1]: 4.41% and 4.4 ± 1.1 ^c %; Te% ± SEM HBMEC Cells 2 h ([1]; listed as fucoxanthinol): 4.4%; Te% ± SEM HBMEC Cells 4 h [1]: 5.13% and 5.1 ± 0.1 ^b %; Te% ± SEM Caco-2 Cells 2 h [2]: 7.01% and 7.0 ± 0.2 ^c %; Te% ± SEM Caco-2 Cells 2 h ([2]; listed as fucoxanthinol): 7.0%; Te% ± SEM Caco-2 Cells 4 h [2]: 8.63% and 8.6 ± 2.2 ^b %; Te% ± SEM Caco-2 Cells 24 h [2]: 18.36% and 18.4 ± 7.2 ^a % |
| N[C@@H](CCC(=O)O)C(=O)O [L-glutamate] |  |  |  | viability at 24 h, 23 mM [3]: 47% |
| CC(=C/C=C/C(C)=C/C=C/C=C(C)/C=C/C=C(\C)C=C=C1C(C)(C)C[C@H](O)C[C@@]1(C)O)/C=C/[C@@]12O[C@]1(C)C[C@@H](O)CC2(C)C [Neoxanthin] | 13.2% | 13.2 ± 4.3 ^a % | ≈ 0.6% and 0.6% | Te% ± SEM HBMEC Cells 4 h [1]: 1.4 ± 0.2 ^b %; Te% ± SEM HBMEC Cells 4 h ([1]; listed as neoxanthin): 1.4%; Te% ± SEM HBMEC Cells 24 h ([1]; listed as neoxanthin): 13.2%; Te% ± SEM Caco-2 Cells 2 h [2]: 0.5 ± 0.3 ^b %; Te% ± SEM Caco-2 Cells 4 h [2]: 0.4 ± 0.1 ^b %; Te% ± SEM Caco-2 Cells 24 h [2]: 0.6 ± 0.4 ^a % |
| C=C1C[C@@H](O)CC(C)(C)[C@]1(O)CC(=O)/C(C)=C/C=C/C(C)=C/C=C/C=C(C)/C=C/C=C(C)/C=C/[C@H]1C(C)=C[C@H](O)CC1(C)C [Prasinoxanthin] |  | 8.9 ± 2.3% | could not be detected; also recorded: could not pass through the intestinal epithelium |  |
| CC(/C=C/C=C(C)/C=C/[C@@]12O[C@]1(C)C[C@@H](O)CC2(C)C)=C\C=C\C=C(C)\C=C\C=C(C)\C=C\[C@@]12O[C@]1(C)C[C@@H](O)CC2(C)C [Violaxanthin] |  | 13.9 ± 6.0% | could not be detected; also recorded: could not pass through the intestinal epithelium |  |
| CC1=C(/C=C/C(C)=C/C=C/C(C)=C/C=C/C=C(C)/C=C/C=C(C)/C=C/[C@@]23O[C@]2(C)C[C@@H](O)CC3(C)C)C(C)(C)C[C@H](O)C1 [antheraxanthin] | could not be detected in the lower compartment |  | could not be detected in the lower compartment |  |
| CC1=C(C#C/C(C)=C/C=C/C(C)=C/C=C/C=C(C)/C=C/C=C(C)/C=C/[C@@]23O[C@]2(C)C[C@@H](O)CC3(C)C)C(C)(C)C[C@H](O)C1 [diadinoxanthin] | could not be detected in the lower compartment |  | could not be detected in the lower compartment |  |
| CC1=CCCC(C)(C)C1/C=C/C(C)=C/C=C/C(C)=C/C=C/C=C(C)/C=C/C=C(C)/C=C/C1=C(C)CCCC1(C)C (stereo not drawn) [α-carotene] | could not be detected in the lower compartment |  | could not be detected in the lower compartment |  |
| CC1=C(/C=C/C(C)=C/C=C/C(C)=C/C=C/C=C(C)/C=C/C=C(C)/C=C/C2=C(C)CCCC2(C)C)C(C)(C)CCC1 [β-carotene] | could not be detected in the lower compartment |  | could not be detected in the lower compartment |  |
| echinenone I | could not be detected in the lower compartment |  | could not be detected in the lower compartment |  |
| echinenone II | could not be detected in the lower compartment |  | could not be detected in the lower compartment |  |
| hydrogen peroxide [H2O2] |  |  |  | Cell viability compared to control group, neurotoxic agent alone [4]: 48% |
| zeaxanthin/lutein | could not be detected in the lower compartment |  | could not be detected in the lower compartment |  |

Source: publication PMC12115197, “Neuroprotective Potential of Tetraselmis chuii Compounds: Insights into Blood–Brain Barrier Permeability and Intestinal Transport” (Pharmaceuticals, 2025)
